Ends that are not written are not given here.
Legend:
[1] = test system: methicillin resistant Staphylococcus aureus (MRSA) biofilm; details: approximate peptide concentration […] (around 3 μg/ml); compared to untreated samples
Description: Methods of assessment of anti-biofilm activity—Biofilm formation was initially analyzed using a static abiotic solid surface assay as described elsewhere (de la Fuente-Nunez et al., 2012). Dilutions (1/100) of overnight cultures were incubated in BM2 biofilm-adjusted medium [62 mM potassium phosphate buffer (pH 7), 7 mM (NH4)2SO4, 2 mM MgSO4, 10 μM FeSO4, 0.4% (wt/vol) glucose, 0.5% (wt/vol) Casamino Acids], or a nutrient medium such as Luria Broth, in polypropylene microtiter plates (Falcon, United States) in the absence (control) or presence of peptide. Peptide was added at time zero (prior to adding the diluted, overnight cultures) in varying concentrations, and the decrease in biofilm formation was recorded at 22-46 h for most bacteria. Planktonic cells were removed, biofilm cells adhering to the side of the tubes were stained with crystal violet, and absorbance at 595 nm was measured using a microtiter plate reader (Bio-Tek Instruments Inc., United States). Some peptides were screened against two Gram negative organisms, P. aeruginosa and K. pneumoniae using a Bioflux apparatus (AutoMate Scientific, Berkeley, Calif.; http://www.autom8.com/bioflux_biofilm.html), which allows for the high-throughput, real-time analysis of biofilms.

[2] = test system: human peripheral blood mononuclear cells (MCP-1); test: SPOT-synthesized derivative screen: production of chemokine MCP-1; format: cell-based; details: Table 12, No LPS, human PBMC, peptide at ~18-24 μM; for MCP1: background subtracted 139 (HH2 derivatives), 170 (1018 derivatives), 242 (1002 and hybrid peptides) pg/ml
Description: Venous blood (20 ml) from healthy volunteers was collected in Vacutainer® collection tubes containing sodium heparin as an anticoagulant (Becton Dickinson, Mississauga, ON) in accordance with UBC ethical approval and guidelines. Blood was diluted 1:1 with complete RPMI 1640 medium and separated by centrifugation over a Ficoll-Paque® Plus (Amersham Biosciences, Piscataway, N.J., USA) density gradient. White blood cells were isolated from the buffy coat, washed twice in RPMI 1640 complete medium, and the number of peripheral blood mononuclear cells (PBMC) was determined by Trypan blue exclusion. PBMC (5×10^5) were seeded into 12-well tissue culture dishes (Falcon; Becton Dickinson) at 0.75 to 1×10^6 cells/ml at 37° C. in 5% CO2. The above conditions were chosen to mimic conditions for circulating blood monocytes entering tissues at the site of infection via extravasation.
Following incubation of the cells under various treatment regimens, the tissue culture supernatants were centrifuged at 1000×g for 5 min, then at 10,000×g for 2 min to obtain cell-free samples. Supernatants were aliquoted and then stored at −20° C. prior to assay for various chemokines by capture ELISA (eBioscience and BioSource International Inc., CA, USA respectively)

[3] = test system: LPS-stimulated human peripheral blood mononuclear cells (IL1-β); format: cell-based; details: Table 12, cells stimulated with 10 ng/ml LPS; for IL1β Production: LPS alone 1313 (HH2 derivatives), 1927 (1018 derivatives), 2455 (1002 and hybrid peptides) pg/ml
Description: LPS from P. aeruginosa strain H103 was highly purified free of proteins and lipids using the Darveau-Hancock method. Briefly, P. aeruginosa was grown overnight in LB broth at 37° C. Cells were collected and washed and the isolated LPS pellets were extracted with a 2:1 chloroform:methanol solution to remove contaminating lipids. Purified LPS samples were quantitated using an assay for the specific sugar 2-keto-3-deoxyoctosonic acid (KDO assay) and then resuspended in endotoxin-free water (Sigma-Aldrich).

Substance	% Biofilm inhibition [1]	Fold increase in MCP1 cf. untreated cells [2]	MCP1 [2]	Fold change in IL1β relative to no peptide LPS stimulated cells [3]	IL1β Production [3]
1002-W5: single substituted 1002 peptide (VQRWWIVWRIRK-NH2) [Peptide 1002-W5]	76%	0.9	-36.2 pg/mL	0.05	127 pg/mL
1002-A4: single substituted 1002 peptide (VQRALIVWRIRK-NH2) [Peptide 1002-A4]	52%	0.9	-36.2 pg/mL	0.27	655 pg/mL
1018-Q7: single substituted 1018 peptide (VRLIVAQRIWRR-NH2) [Peptide 1018-Q7]	28%	0.7	-54 pg/mL	1.04	1368 pg/mL
HH2-W6: single substituted HH2 peptide (VQLRIWVAVIRA-NH2)	56%	4.1	534 pg/mL	0.55	718 pg/mL
1018-W8: single substituted 1018 peptide (VRLIVAVWIWRR-NH2) [Peptide 1018-W8]	43%	0.8	-28 pg/mL	0.34	448 pg/mL
HH2-A4: single substituted HH2 peptide (VQLAIRVAVIRA-NH2)	42%	5.0	672 pg/mL	1.52	2000 pg/mL
HH2-L4: single substituted HH2 peptide (VQLLIRVAVIRA-NH2)	54%	18	2884 pg/mL	0.61	800 pg/mL
1002-Q9: single substituted 1002 peptide (VQRWLIVWQIRK-NH2) [Peptide 1002-Q9]	41%	7.2	1514.2 pg/mL	0.05	127 pg/mL
1002-A5: single substituted 1002 peptide (VQRWAIVWRIRK-NH2) [Peptide 1002-A5]	70%	0.9	-36.2 pg/mL	0.07	182 pg/mL
HH2-R1: single substituted HH2 peptide (RQLRIRVAVIRA-NH2)	53%	25	4034 pg/mL	1.50	1965 pg/mL
1002-I7: single substituted 1002 peptide (VQRWLIIWRIRK-NH2) [Peptide 1002-I7]	73%	3.3	557.5 pg/mL	0.05	127 pg/mL
1002-Q5: single substituted 1002 peptide (VQRWQIVWRIRK-NH2) [Peptide 1002-Q5]	48%	0.9	-36.2 pg/mL	0.07	180 pg/mL
HH2-L11: single substituted HH2 peptide (VQLRIRVAVILA-NH2)	47%	40	6545 pg/mL	1.09	1425 pg/mL
